Results taken from patent publication US20100113347A1 (priority 2007, published 2010).

Columns and labels:
[1] = system: mice with alloxan diabetes; experiment: Blood cholesterol level in mice with alloxan diabetes (Example 1); assay type: in vivo; settings: exenatide 7.5 mcg/kg
Method: Diabetes was induced in white mice by a single intraperitoneal administration of alloxan in a dose of 135 mg/kg. […] Control animals received injections of saline solution. By day 31 of the experiment, the levels of blood glucose and cholesterol were measured after an overnight fast. Data are presented as a mean±standard deviation (n=5) of the measured levels of glucose or cholesterol. […] To determine the therapeutic effect of lowering the level of glucose, the following formula was used: […]
To determine the therapeutic effect of lowering the level of cholesterol, the following formula was used:
ΔCholesterol=Cholesterolmedication−Cholesterolcontrol.
(§1) Statistical differences of the obtained results were assessed with the use of Student's t-test.

[2] = system: mice with alloxan diabetes; experiment: Blood glucose level in mice with alloxan diabetes (Example 1); assay type: in vivo; settings: exenatide 7.5 mcg/kg
Method: Diabetes was induced in white mice by a single intraperitoneal administration of alloxan in a dose of 135 mg/kg. […] Control animals received injections of saline solution. By day 31 of the experiment, the levels of blood glucose and cholesterol were measured after an overnight fast. Data are presented as a mean±standard deviation (n=5) of the measured levels of glucose or cholesterol. […] To determine the therapeutic effect of lowering the level of glucose, the following formula was used:
ΔGlucose=Glucosemedication−Glucosecontrol.
as §1

[3] = day 31, after overnight fast, s.c. twice daily for 30 days, dalargin 8.8 mcg/kg
[4] = day 31, after overnight fast, s.c. twice daily for 30 days, dalargin 8.8 mcg/kg, mean±SD, n=5
[5] = dalargin 8.8 mcg/kg s.c. twice daily for 30 days

For “tirozil-2-alanil-glycil-phenylalanyl-leucil-arginine [Dalargin]”, the “Δ Cholesterol (Cholesterol medication − Cholesterol control)” value [1, 3] was -0.27 mmol/L, the Cholesterol [1, 4] was 2.34 ± 0.16 mmol/L and the “effect on blood cholesterol after an overnight fast (in words)” value [1, 5] was “inefficient”. The “Δ Glucose (Glucose medication − Glucose control)” value [2, 3] was -0.9 mmol/L, the Glucose [2, 4] was 10.6 ± 1.3 mmol/L and the “effect on blood glucose levels after an overnight fast (in words)” value [2, 5] was “inefficient”.
